Patent US9724331B2, “Use of maleimide derivatives for preventing and treating leukemia” (CENTOGENE AG, priority 2012, dated 2017)
Entries after “also recorded” stand apart in the source; their conditions may differ.

Tests used:
Assay in all cases: Western blot, PI3K/Akt and Wnt/β-catenin pathway
Format in all cases: cell-based, human
[1] = system: PI3K/Akt and Wnt/β-catenin pathway in Jurkat cells
Experimental: (§1) After treatment with PDA-66 and DMSO, respectively, cells were lyzed and protein expression analyzed with Western blot.
(§2) Protein extraction and Western blot was performed as described above. Following polyclonal antibodies were used: rabbit anti-cleaved caspase 3, rabbit anti-caspase 3, rabbit anti-cleaved PARP, rabbit anti-PARP, rabbit anti-cleaved caspase 7, rabbit anti-caspase 7, rabbit anti-pAktThr308, rabbit anti-pAktSer473, rabbit anti-Akt, rabbit anti-β-catenin, rabbit anti-pGSK3βSer9, rabbit anti-GSK3β, rabbit anti-p4EBP-1Ser65 and rabbit anti-4EBP-1 (all Cell Signaling Frankfurt/Main, Germany). Blots were incubated with mouse anti-GAPDH antibody (Invitrogen, Carlsbad, USA) as loading control.

[2] = system: PI3K/Akt and Wnt/β-catenin pathway in Molt-4 cells; details: incubation of 4 and 24 h
Experimental: as §1, §2

[3] = system: PI3K/Akt and Wnt/β-catenin pathway in SEM cells
Experimental: as §1, §2

[4] = system: PI3K/Akt and Wnt/β-catenin pathway in RS4;11 cells; details: incubation of 4 and 24 h
Experimental: as §1, §2

[5] = SEM cells shown exemplarily (FIG. 6A)
[6] = SEM cells, incubation of 4 and 24 h

## CC(=O)c1ccc(C2=C(c3c(C)[nH]c4ccccc34)C(=O)N(C)C2=O)cc1 [PDA-66, 3-(4-Acetylphenyl)-1-methyl-4-(2-methyl-1H-indol-3-yl)-1H-pyrrole-2,5-dione]
[1]; incubation of 4 and 24 h
  expression of p4EBP-1Ser65: decrease
  expression of total 4EBP-1: decrease
[1]; incubation of 24 h
  pAktSer473: not confirmed by a rise
  pAktThr308: increase
[2]
  expression of p4EBP-1Ser65: increased expression; also recorded: increase
[3]; [5]
  expression of total Akt: no influence
  expression of total GSK3β: no influence
  expression of β-catenin: no influence
[3]; SEM cells, after 4 h
  pGSK3βSer9: small decrease; also recorded: slight decrease
[3]; [6]
  expression of p4EBP-1Ser65: decrease
  expression of total 4EBP-1: decrease
[3]; SEM cells, incubation of 24 h
  pAktSer473: not confirmed by an increase; also recorded: not confirmed by a rise
  pAktThr308: slight increase
[4]
  expression of p4EBP-1Ser65: decrease
  expression of total 4EBP-1: decrease
